# Values of other authors in patent US10611818B2, “MHC multimers in tuberculosis diagnostics, vaccine and therapeutics” (priority 2007, dated 2020).
# Tested on: T2 cells
# Conditions: CD8 T-cell clones 8, 9, 10, 11 and 12
sequence,measurement,value
"GLQHWVPEL [BA4697-105, irrelevant peptide used to load T2 target cells]",lysis of T2 cells pulsed with peptide,without killing
